The structures appear in SMILES notation.

The data set can be described thus: Human HepG2 cell viability assay in 384 well format. Format: toxicity, cell-based. The arrangement: dose 125 nL, time 70.5 hour; concentration not given beside the values. Conditions: HepG2 cells, read-out: Inhibition.
Take `O=S(=O)(C1CC1)N1CCn2c(Cn3cncn3)cnc2C1`: the cytotoxicity at 70.5 h is 0.357%.

On to `Cn1nc(CNC(=O)CC#N)c2c1CN(C(N)=O)CC2`, for which the cytotoxicity at 70.5 h was found to be 11.4%.

Consider `Cc1cnc(N2CC(C(=O)N3CCOCC3)C3(CCOCC3)C2)nc1` (stereo not drawn), for which the cytotoxicity at 70.5 h is -3.59%.

In the case of `CC(=O)Nc1ccc2c(c1)C1(CCOCC1)C(=O)N2c1ccsc1`, the cytotoxicity at 70.5 h is -9.04%.

For `CC(C)Nc1ccc2c(c1)C1(CCOCC1)C(=O)N2c1ccsc1`, the cytotoxicity at 70.5 h was -7.35%.

Turning to `Cc1cnc(N2CCOC3(CCCN(c4ncccn4)C3)C2)nc1` (stereo not drawn), the cytotoxicity at 70.5 h is -4.18%.

Regarding `CCOCC1CN(c2ncc(F)cn2)Cc2cn(CC)nc21` (stereo not drawn), the cytotoxicity at 70.5 h was -11.1%.

As for `COCCN1C(=O)C2(CCC(C(=O)Nc3cccc(C)c3)CC2)N=C1C` (stereo not drawn), the cytotoxicity at 70.5 h is -9.96%.

Consider `CC(C)NC(=O)N1CCOC2(CCCN(c3cccc(C#N)c3)C2)C1` (stereo not drawn), for which the cytotoxicity at 70.5 h is -10.4%.

Consider `CCn1cc2c(n1)C(COCC1CC1)CN(c1ccc(C)nn1)C2` (stereo not drawn), for which the cytotoxicity at 70.5 h is -16.7%.

For the molecule `O=C(C1CN(c2ncc(F)cn2)CC12CCOCC2)N1CCOCC1` (stereo not drawn), the cytotoxicity at 70.5 h is -9.96%.

As for `COCCN1C(=O)C2(CCC(C(=O)Nc3ccc(F)cc3)CC2)N=C1C` (stereo not drawn), the cytotoxicity at 70.5 h is -7.58%.

On to `Cc1nnn2c1COC(CNCc1ccncc1)C2` (stereo not drawn), for which the cytotoxicity at 70.5 h is -15.7%.

As to `O=C(NC1CCCC1)NC1CCc2[nH]c(=O)ccc2C1` (stereo not drawn), the cytotoxicity at 70.5 h is -7.5%.

Regarding `O=C(c1nc2c(s1)CCCN2C(=O)C1CC1)N1CCCC1`, the cytotoxicity at 70.5 h was -3.91%.

Turning to `c1ccc(CNCC2Cn3nncc3CO2)nc1` (stereo not drawn), the cytotoxicity at 70.5 h is -7.76%.

On to `O=C(NC1CCC1)[C@H]1C[C@@H]2CN(C(=O)Nc3ccc(F)cc3)C[C@H]1O2`, for which the cytotoxicity at 70.5 h is -5.31%.

As to `Cc1cccc(COC2COC3(CCN(Cc4ccoc4)CC3)C2)n1` (stereo not drawn), the cytotoxicity at 70.5 h was -16.1%.

`CC(C)NC(=O)N1CCN(S(C)(=O)=O)CC2(CNC(=O)C2)C1` (stereo not drawn): the cytotoxicity at 70.5 h was -17.9%.

With `O=C(c1cnccn1)N1CCn2cnc(COCC3CC3)c2C1`, the cytotoxicity at 70.5 h was 14.8%.

`CS(=O)(=O)NC[C@]12COC[C@H]1CN(C(=O)c1ccncn1)C2`: the cytotoxicity at 70.5 h is 15.5%.

Regarding `CS(=O)(=O)NC[C@]12COC[C@H]1CN(C(=O)c1cnccn1)C2`, the cytotoxicity at 70.5 h was 19.5%.

Take `O=C(NCC1CC1)C1CN(C(=O)c2cnccn2)CC12CCOCC2` (stereo not drawn): the cytotoxicity at 70.5 h was -2.91%.

Turning to `COc1ccc(N2CCCC3(C2)CN(c2nncs2)CCO3)cc1` (stereo not drawn), the cytotoxicity at 70.5 h was 1.09%.

On to `Cc1ccoc1C(=O)N1C[C@@H]2COC[C@]2(CNS(C)(=O)=O)C1`, for which the cytotoxicity at 70.5 h is -3.33%.

For `CN(Cc1cn2c(n1)CN(C(=O)c1cccnc1)CC2)Cc1ccco1`, the cytotoxicity at 70.5 h was -2.78%.

Take `Cn1cc(C2CC3(CCN(C(=O)c4cccs4)CC3)NC2=O)cn1` (stereo not drawn): the cytotoxicity at 70.5 h worked out at 1.02%.

`O=C1NC2(CCN(C(=O)Cc3ccsc3)CC2)CC1c1ccccc1` (stereo not drawn): the cytotoxicity at 70.5 h was 0.488%.

In the case of `CN(Cc1cn2c(n1)CN(C(=O)c1cccn1C)CC2)Cc1ccco1`, the cytotoxicity at 70.5 h stood at 9.36%.

As for `Cc1cccc(C(=O)N2CCn3cnc(COCC4CC4)c3C2)c1`, the cytotoxicity at 70.5 h was -5.71%.

`CN(Cc1cn2c(n1)CN(C(=O)C1CCCO1)CC2)Cc1ccco1` (stereo not drawn): the cytotoxicity at 70.5 h was -3.64%.

Take `Cc1ncsc1CN1CC[C@H]2OCC[C@@]2(C(=O)N2CCCC2)C1`: the cytotoxicity at 70.5 h was -1.98%.

Take `Cc1cccc(C(=O)N2CCn3cnc(COCC4CC4)c3C2)n1`: the cytotoxicity at 70.5 h was -2.97%.

For the molecule `CCOCC(=O)N1CCn2cc(CN(C)Cc3ccco3)nc2C1`, the cytotoxicity at 70.5 h is -0.359%.

`O=C(NCC1CC1)C1CN(C(=O)c2ccco2)CC12CCOCC2` (stereo not drawn): the cytotoxicity at 70.5 h was -1.19%.

`Cc1occc1C(=O)N1CC(C(=O)N2CCOCC2)C2(CCOCC2)C1` (stereo not drawn): the cytotoxicity at 70.5 h was 6.2%.

In the case of `Cc1ccc(CN2CCC3(CC2)CC(NC(=O)c2ccccn2)CO3)o1` (stereo not drawn), the cytotoxicity at 70.5 h is -2.22%.

In the case of `Cc1csc([C@H]2C[C@@H]3CCN(C(=O)c4ccnnc4)C[C@H]3O2)n1`, the cytotoxicity at 70.5 h was -1.58%.

For `O=C(c1ccccc1)N1CC(C(=O)N2CCOCC2)C2(CCOCC2)C1` (stereo not drawn), the cytotoxicity at 70.5 h was 7.01%.

As to `CN1CC(=O)N(c2cccc(F)c2)CC12CCN(Cc1ccco1)C2` (stereo not drawn), the cytotoxicity at 70.5 h was -5.08%.

As to `CN1CC(=O)N(c2cccc(F)c2)CC12CCN(Cc1ccccn1)C2` (stereo not drawn), the cytotoxicity at 70.5 h is -1.03%.

Consider `CCC1=N[C@@]2(CC[C@@H]3CN(S(=O)(=O)CC(C)C)C[C@@H]32)C(=O)N1CC1CC1`, for which the cytotoxicity at 70.5 h was 0.026%.

On to `COCC1CN(C(=O)N2CCCC2)Cc2cnn(CC3CCCC3)c21` (stereo not drawn), for which the cytotoxicity at 70.5 h is -1.96%.

Regarding `Cn1ncc2c1C(COCC1CC1)CN(C(=O)Cc1ccsc1)C2` (stereo not drawn), the cytotoxicity at 70.5 h was -2.83%.

For `c1cc(CN2CCO[C@@H]3CNC[C@@H]32)cs1`, the cytotoxicity at 70.5 h is -2.99%.

`CC(C)N(C)Cc1cncc2c1CCN(C(=O)c1ccc[nH]1)C2`: the cytotoxicity at 70.5 h was -1.2%.

On to `CC(C)N(C)Cc1cncc2c1CCN(C(=O)c1cccc(C#N)c1)C2`, for which the cytotoxicity at 70.5 h was -4.95%.

Regarding `CC(C)N(C)Cc1cncc2c1CCN(C(=O)c1ccccc1F)C2`, the cytotoxicity at 70.5 h was -1.95%.

As for `Cc1ccc(N2CCC3(CCCN3Cc3ccn(C)n3)CC2)nn1`, the cytotoxicity at 70.5 h is -2.31%.

With `OCCOCc1n[nH]c2c1CN(Cc1ccco1)C2`, the cytotoxicity at 70.5 h was determined as 12.9%.

Turning to `CC(C)C(=O)N1CCCC2(CCCN2CC2CCCC2)C1` (stereo not drawn), the cytotoxicity at 70.5 h was -2.41%.

Take `O=C(c1ccc2[nH]ccc2c1)N1Cc2nc(CN3CCCCC3)oc2C1`: the cytotoxicity at 70.5 h was -3.84%.

For the molecule `COCC1CC2(CCN(C(N)=O)CC2)CN1Cc1csc(C)n1` (stereo not drawn), the cytotoxicity at 70.5 h was -3.74%.

Consider `Cc1nc(CN2C[C@@H]3CN(c4ncc(F)cn4)C[C@@H]3C2=O)cs1`, for which the cytotoxicity at 70.5 h was -10.5%.

Regarding `O=C(C1CN(c2ncc(F)cn2)CC12CCOCC2)N1CC=CC1` (stereo not drawn), the cytotoxicity at 70.5 h is -5.64%.

Take `Cc1cccc(N2CC3(CCN(S(=O)(=O)C4CC4)C3)C2)n1`: the cytotoxicity at 70.5 h was -6.18%.

As to `CCN1C[C@H]2C3(CCN(S(=O)(=O)CC)CC3)CC[C@@]2(C(=O)N(C)C)C1`, the cytotoxicity at 70.5 h is -4.85%.

In the case of `Cc1cnc(N2C[C@H]3CN(Cc4csc(C)n4)C(=O)[C@H]3C2)nc1`, the cytotoxicity at 70.5 h is -9.66%.

In the case of `CC(C)c1cc(C(=O)N2CCOC3(CCNCC3)C2)no1`, the cytotoxicity at 70.5 h was -5.65%.

With `CCS(=O)(=O)N1CCC2(CC1)CC[C@@]1(C(=O)N(C)C)CN(C)C[C@@H]21`, the cytotoxicity at 70.5 h was -15.2%.

`CC(=O)N1CCCC2(C1)CN(c1ncc(C)cn1)CCO2` (stereo not drawn): the cytotoxicity at 70.5 h is -17.1%.

Take `Cc1cc(CNCC2Cn3nnc(C)c3CO2)oc1C` (stereo not drawn): the cytotoxicity at 70.5 h is -7.06%.

Regarding `Cc1ccc(CN2C[C@@H]3CN(c4ncccn4)C[C@@H]3C2)cc1`, the cytotoxicity at 70.5 h is -4.24%.

In the case of `N#Cc1cccc(C(=O)N2CCc3c(COCC4CC4)cncc3C2)c1`, the cytotoxicity at 70.5 h was -17.6%.

On to `Cc1cnc(N2CCC3(CC(=O)N(Cc4csc(C)n4)C3)C2)nc1` (stereo not drawn), for which the cytotoxicity at 70.5 h was -11.1%.

With `Cc1occc1C(=O)N1CCOCC2(CCN(C3CCOCC3)C2)C1` (stereo not drawn), the cytotoxicity at 70.5 h was -19.7%.

For `O=C(N1CCOCC1)[C@@]12CCO[C@@H]1CCN(C1CCCCC1)C2`, the cytotoxicity at 70.5 h came to 47.3%.

Regarding `Cc1cccc(CN2CCC3(CCCN(C(=O)N4CCCC4)C3)C2=O)n1` (stereo not drawn), the cytotoxicity at 70.5 h was 40%.

As for `CC(=O)NCC(=O)N1CCn2cc(CN(C)Cc3ccco3)nc2C1`, the cytotoxicity at 70.5 h is 2.22%.

In the case of `Cc1nnc(N2C[C@H]3OCC[C@H]3[C@H](C(=O)NCC3CC3)C2)s1`, the cytotoxicity at 70.5 h was 1.29%.

Consider `O=C([C@@H]1C[C@@H]2CCN(Cc3ccccn3)C[C@H]2O1)N1CCCO1`, for which the cytotoxicity at 70.5 h was 2.74%.

Consider `Cc1ncsc1CN1CC[C@H]2OCC[C@@]2(C(=O)NC2CC2)C1`, for which the cytotoxicity at 70.5 h is -2.8%.

For `O=C(c1ccccc1)N1C[C@H]2CCC[C@@]2(COCc2ccncc2)C1`, the cytotoxicity at 70.5 h was 0.753%.

In the case of `O=C(c1ccccc1F)N1C[C@H]2CCC[C@@]2(COCc2ccncc2)C1`, the cytotoxicity at 70.5 h was -0.88%.

As to `O=C(C1=CCCC1)N1C[C@H]2CCC[C@@]2(COCc2ccncc2)C1`, the cytotoxicity at 70.5 h worked out at 3.16%.

For the molecule `O=C(NC1COC2(CCN(CC3CCC3)CC2)C1)c1ccccn1` (stereo not drawn), the cytotoxicity at 70.5 h stood at 1.22%.

Turning to `Cn1cnc2c1C(COCC1CC1)CN(C(=O)c1cscn1)C2` (stereo not drawn), the cytotoxicity at 70.5 h is -5.14%.

On to `Cc1ccc(C(=O)N2C[C@@H]3[C@@H](C2)OCC(=O)N3Cc2cccnc2)o1`, for which the cytotoxicity at 70.5 h is -2.11%.

Turning to `O=C(c1ccoc1)N1C[C@@H]2[C@@H](C1)OCC(=O)N2Cc1cccnc1`, the cytotoxicity at 70.5 h was -3.91%.

Consider `CS(=O)(=O)N1C[C@@H](Oc2ccccn2)[C@H]2OCCC[C@H]21`, for which the cytotoxicity at 70.5 h is -2.17%.

For the molecule `COc1ccc(CN2CCc3c(CNC(=O)CC#N)nn(C)c3C2)cc1`, the cytotoxicity at 70.5 h was -1.4%.

On to `CN1CCCn2c(nc(CNC(=O)c3nccn3C)cc2=O)C1`, for which the cytotoxicity at 70.5 h was -1.89%.

Turning to `CCN1CCC2(CC1)CC(COC)N(Cc1csc(C)n1)C2` (stereo not drawn), the cytotoxicity at 70.5 h is -5.79%.

Consider `COCC1CC2(CCN(CC3CC3)CC2)CN1Cc1csc(C)n1` (stereo not drawn), for which the cytotoxicity at 70.5 h was -5.11%.

Regarding `COCC1CC2(CCNCC2)CN1Cc1csc(C)n1` (stereo not drawn), the cytotoxicity at 70.5 h is -8.39%.

Consider `Cc1nc(Cn2c3c(ccc2=O)CCN(CC2CC2)CC3)cs1`, for which the cytotoxicity at 70.5 h is -2.72%.

For `CN(C)[C@@H]1COC[C@@H]2CN(Cc3ccc4c(c3)OCO4)C[C@@H]21`, the cytotoxicity at 70.5 h is -3.34%.

As to `c1cncc(OCc2noc3c2CN(Cc2cccs2)CC3)c1`, the cytotoxicity at 70.5 h was -24.1%.

As to `CCN(CC)CCN1CC[C@H]2OCC[C@@]2(C(=O)N2CCOCC2)C1`, the cytotoxicity at 70.5 h is -14.8%.

Consider `Cc1ccc(CN2CCOC3(COCCN(C(C)C)C3)C2)s1` (stereo not drawn), for which the cytotoxicity at 70.5 h was found to be 18.3%.

As to `c1cc(CNCC2OCCc3cn(CC4CC4)nc32)cs1` (stereo not drawn), the cytotoxicity at 70.5 h is -4.34%.

Regarding `Cc1ncsc1CN1Cc2cnn(C)c2C(COCC2CC2)C1` (stereo not drawn), the cytotoxicity at 70.5 h is -1.88%.

With `Cc1ccc(-c2cnc3n2CCN(C)C32CCN(CC3CC3)CC2)cc1`, the cytotoxicity at 70.5 h was -1.92%.

(Values after ChEMBL document CHEMBL3507680, “University of Dundee, Gates Library screen for HepG2 cell viability”.)
